Values of other authors, collected in patent US7858803B2, “Imaging tracers for early detection and treatment of amyloid plaques caused by Alzheimer's disease and related disorders” (The General Hospital Corporation, priority 2007, dated 2010).

Legend:
[1] = normal mice, iv, at 2 min after injection
[2] = tested on: brain amyloid deposits; details: APP23 transgenic mice, brain sections at 180 min after iv injection

initial brain uptake [1]: 3.9 % injected dose/gm
Compound: CNc1ccc(C=Cc2nc3ccc(OCCF)cc3o2)cc1 [BF-168, 6-(2-fluoroethoxy)-2-[2-(4-methylaminophenyl)ethenyl]-benzoxazole]
labeling of brain amyloid deposits in autoradiograms [2]: selective labeling of brain amyloid deposits with little non-specific binding
